A short description of data set [1]: Compound solubility in water. The class given is physicochemical.
Data set [2] deals with T1, glucocerebrosidase (Gcase) (Homo sapiens, UniProt P04062).
T1 construct: micellar solution containing 10 nM GCase and 100 nM saposin C
T1 sequence (P04062 40-536): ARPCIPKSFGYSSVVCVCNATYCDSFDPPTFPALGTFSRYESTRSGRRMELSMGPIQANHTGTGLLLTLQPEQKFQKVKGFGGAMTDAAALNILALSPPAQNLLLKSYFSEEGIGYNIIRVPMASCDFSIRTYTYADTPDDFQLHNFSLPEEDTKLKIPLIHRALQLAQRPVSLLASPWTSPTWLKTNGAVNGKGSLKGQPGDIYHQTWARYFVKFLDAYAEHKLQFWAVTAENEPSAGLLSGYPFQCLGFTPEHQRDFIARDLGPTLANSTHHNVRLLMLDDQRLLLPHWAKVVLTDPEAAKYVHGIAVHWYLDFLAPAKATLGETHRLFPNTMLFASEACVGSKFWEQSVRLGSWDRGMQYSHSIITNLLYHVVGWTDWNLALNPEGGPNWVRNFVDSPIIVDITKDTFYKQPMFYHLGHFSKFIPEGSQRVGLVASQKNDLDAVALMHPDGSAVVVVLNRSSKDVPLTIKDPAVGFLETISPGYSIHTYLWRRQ
Nature of the data set: Glucocerebrosidase (Gcase) activation assay, 4-methylumbelliferyl-beta-D-glucopyranoside substrate, with saposin C. The data set is classed as biochemical. The following applies: 10 nM GCase, 100 nM saposin C, pH 4.7; for activation at 0.1 µM: 0.1 μM test compound, read-out: Percent Gease Activation 0.1 μM Test Compound; for activation at 1 µM: 1 μM test compound, read-out: Percent Gease Activation 1 μM Test Compound. On the procedure:
The ability of exemplary compounds to activate glucocerebrosidase (Gcase) was measured.
A 484 μL aliquot of a 1.0 mg/mL solution of phosphatidylserine (PS) (Sigma P7769) in chloroform was evaporated under a stream of nitrogen for 1 hour. The lipid film was dissolved over 4 minutes of vigorous vortexing in 40 mL of 176 mM K2HPO4/50 mM citric acid (pH 4.7) containing 7.5 μL of triton X-100, resulting in a mixed micellar preparation with a composition of 0.32 mM triton and 0.37 mol % PS. 4-Methylumbelliferyl-beta-D-glucopyranoside (ACROS-337025000) was dissolved in the micellar solution to a final concentration of 2 mM for use as the reaction substrate.
Test compounds were diluted to the desired concentrations with dimethylsulfoxide (DMSO) from 10 mM stocks, and 0.41 μL of the DMSO compound mixture was added to 100 μL of micellar solution containing 10 nM GCase and 100 nM saposin C (Enzo ALX-201-262-C050). Pre-incubation was allowed to occur for 30 minutes at room temperature, after which the reaction was initiated by combining 25 μL of substrate solution with 25 μL of compound/GCase/saposin mixture. The reaction proceeded for 15 minutes at room temperature and was stopped by adding 150 μL of 1M glycine, pH 12.5. The endpoint of the reaction was monitored by measuring fluorescence intensity (excitation: 365 nm; emission: 440 nm) on a SpectraMax i3 instrument (Molecular Devices). Test compounds were screened at 1.0 and 0.1 μM final concentration, and subsequent 8-point dose response curves were obtained using 3-fold dilutions from a maximum final concentration of 5 μM.
For experiments in which the test compound was used at a concentration of 1.0 μM, the symbol “+” indicates less than 30% Gcase activation; the symbol “++” indicates Gcase activation in the range of 30% up to 60%; and the symbol “+++” indicates Gcase activation greater than 60%. For experiments in which the test compound was used at a concentration of 0.1 μM, the symbol “*” indicates less than 10% Gcase activation; the symbol “**” indicates Gcase activation in the range of 10% up to 20%; and the symbol “***” indicates greater than 20% Gcase activation.

In brackets after ≈: the same amount, converted by molar mass.

This is an account of results in US10786508B2, “Substituted imidazo[1,5-A]-pyrimidines and their use in the treatment of medical disorders” (Lysosomal Therapeutics Inc., priority 2014, dated 2020).

In the case of `CCC(NC(=O)c1ncn2c(C)cc(C)nc12)c1ccc(F)cc1` (stereo not drawn) [III-78], the solubility in data set [1] was determined as 39.5 µg/mL (≈ 121 µM). In data set [2], the activation at 0.1 µM was below 10% and the activation at 1 µM is 30 to 60%.
`Cc1cc(C)n2cnc(C(=O)NC3Cc4ccccc4C3)c2n1` [III-67]: the concentration in solution in data set [1] (solubility) came to 18 µg/mL (≈ 58.8 µM). Besides, in data set [2], the activation at 0.1 µM was below 10% and the activation at 1 µM was below 30%.
`COCc1cc(C2CC2)n2cnc(C(=O)NC(C)(C)c3cccc(OC4CC4)c3)c2n1` [III-55] yielded a solubility in data set [1] of 26.3 µg/mL (≈ 62.5 µM). Moreover, in data set [2], the activation at 0.1 µM fell in the range of 10 to 20% and the activation at 1 µM is above 60%.
With `Cc1cc(C)n2cnc(C(=O)NC(C)(C)c3cccc(Cl)c3)c2n1` [III-82], the concentration in solution in data set [1] (solubility) came to 14.8 µg/mL (≈ 43.2 µM). For the same molecule, in data set [2], the activation at 0.1 µM was below 10% and the activation at 1 µM is above 60%.
For the molecule `Cc1cc(C(C)C)n2cnc(C(=O)N[C@H]3CCCc4ccccc43)c2n1` [III-35], the solubility in data set [1] was determined as 21.6 µg/mL (≈ 62 µM). Further, in data set [2], the activation at 0.1 µM is below 10% and the activation at 1 µM was below 30%.
For `CCOCc1cccc(C(C)(C)NC(=O)c2ncn3c(COC)cc(C(C)C)nc23)c1` [III-61] the same measures were 20.6 µg/mL (≈ 48.5 µM), below 10% and 30 to 60%.
`COc1ccc(F)cc1C(C)NC(=O)c1ncn2c(C)cc(C)nc12` (stereo not drawn) [III-79] registered a solubility in data set [1] of 32 µg/mL (≈ 93.5 µM). Also, in data set [2], the activation at 0.1 µM was below 10% and the activation at 1 µM was 30 to 60%.
For `CCCOc1cccc(C(C)(C)NC(=O)c2ncn3c(C4CC4)cc(COC)nc23)c1` [III-50] the same measures were 31.3 µg/mL (≈ 74.1 µM), 10 to 20% and above 60%.
On to `Cc1cc(C)n2cnc(C(=O)Nc3ccc(-c4cccs4)nc3)c2n1` [III-29], for which, in data set [1], the concentration in solution (solubility) came to 0.4 µg/mL (≈ 1.14 µM). In addition, in data set [2], the activation at 0.1 µM lay in the range of 10 to 20% and the activation at 1 µM is above 60%.
As for `Cc1cc(C)n2cnc(C(=O)Nc3ccc(-c4cscn4)cc3)c2n1` [III-64], the solubility in data set [1] is 0.6 µg/mL (≈ 1.72 µM). In addition, in data set [2], the activation at 0.1 µM was below 10% and the activation at 1 µM lay within 30 to 60%.
The like results for `CCOc1ccc(C(C)NC(=O)c2ncn3c(C)cc(C)nc23)cc1` (stereo not drawn) [III-80] were, in that order, 25.9 µg/mL (≈ 76.5 µM), below 10% and below 30%.
The like results for `COCc1cc(C2CC2)n2cnc(C(=O)NC3(C)CCOc4c(F)ccc(F)c43)c2n1` (stereo not drawn) [III-72] were, in that order, 23.6 µg/mL (≈ 55.1 µM), below 10% and 30 to 60%.
`Cc1cc(C)n2cnc(C(=O)NC3CCc4ccccc43)c2n1` (stereo not drawn) [III-68] registered a solubility in data set [1] of 21 µg/mL (≈ 68.5 µM). Also, in data set [2], the activation at 0.1 µM was below 10% and the activation at 1 µM is below 30%.
For `Cc1cc(C)n2cnc(C(=O)Nc3ccc4cn[nH]c4c3)c2n1` [III-11] the same measures were 0.5 µg/mL (≈ 1.63 µM), below 10% and below 30%.
